Data as given in ChEMBL document CHEMBL4507276 (2021).

Experiments:
[1] = target: Ribosomal protein S6 kinase alpha-1 (Homo sapiens) (UniProt Q15418); settings: Compound concentration 1000.0 nM
[2] = target: Activated CDC42 kinase 1 (Homo sapiens) (UniProt Q07912); settings: Compound concentration 1000.0 nM
[3] = target: Serine/threonine-protein kinase Nek6 (Homo sapiens) (UniProt Q9HC98); settings: Compound concentration 1000.0 nM
[4] = target: Non-receptor tyrosine-protein kinase TYK2 (Homo sapiens) (UniProt P29597); settings: Compound concentration 1000.0 nM
[5] = target: SRSF protein kinase 3 (Homo sapiens) (UniProt Q9UPE1); settings: Compound concentration 1000.0 nM
[6] = target: T1, Dual specificity mitogen-activated protein kinase kinase 3 (Homo sapiens) (UniProt P46734); settings: Compound concentration 1000.0 nM
T1 sequence (whole entry): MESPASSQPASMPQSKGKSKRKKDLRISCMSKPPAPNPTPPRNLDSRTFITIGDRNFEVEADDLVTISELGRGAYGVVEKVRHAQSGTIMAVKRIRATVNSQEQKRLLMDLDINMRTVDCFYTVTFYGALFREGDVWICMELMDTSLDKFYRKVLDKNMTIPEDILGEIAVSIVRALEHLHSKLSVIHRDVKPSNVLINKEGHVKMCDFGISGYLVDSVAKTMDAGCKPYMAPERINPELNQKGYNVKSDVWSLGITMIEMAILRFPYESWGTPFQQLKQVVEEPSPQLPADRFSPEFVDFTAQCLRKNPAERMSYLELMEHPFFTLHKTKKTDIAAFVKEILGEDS

[7] = target: Macrophage-stimulating protein receptor (Homo sapiens) (UniProt Q04912); settings: Compound concentration 1000.0 nM
[8] = target: T2, Alpha-1A adrenergic receptor (Homo sapiens) (UniProt P35348); settings: Compound concentration 10.0 uM
T2 sequence (whole entry): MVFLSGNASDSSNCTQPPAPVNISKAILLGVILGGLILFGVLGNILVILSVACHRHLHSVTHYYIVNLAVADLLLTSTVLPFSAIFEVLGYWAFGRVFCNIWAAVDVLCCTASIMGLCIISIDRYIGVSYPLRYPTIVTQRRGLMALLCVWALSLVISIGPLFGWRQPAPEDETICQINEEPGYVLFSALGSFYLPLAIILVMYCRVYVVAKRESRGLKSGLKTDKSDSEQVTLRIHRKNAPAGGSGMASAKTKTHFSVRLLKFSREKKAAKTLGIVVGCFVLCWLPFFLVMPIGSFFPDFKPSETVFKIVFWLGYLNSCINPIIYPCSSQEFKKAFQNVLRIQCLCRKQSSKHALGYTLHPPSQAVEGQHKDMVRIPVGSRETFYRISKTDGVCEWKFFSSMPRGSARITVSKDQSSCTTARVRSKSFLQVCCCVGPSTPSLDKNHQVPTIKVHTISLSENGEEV

[9] = target: T3, D(4) dopamine receptor (Homo sapiens) (UniProt P21917); settings: Compound concentration 10.0 uM
T3 sequence (whole entry): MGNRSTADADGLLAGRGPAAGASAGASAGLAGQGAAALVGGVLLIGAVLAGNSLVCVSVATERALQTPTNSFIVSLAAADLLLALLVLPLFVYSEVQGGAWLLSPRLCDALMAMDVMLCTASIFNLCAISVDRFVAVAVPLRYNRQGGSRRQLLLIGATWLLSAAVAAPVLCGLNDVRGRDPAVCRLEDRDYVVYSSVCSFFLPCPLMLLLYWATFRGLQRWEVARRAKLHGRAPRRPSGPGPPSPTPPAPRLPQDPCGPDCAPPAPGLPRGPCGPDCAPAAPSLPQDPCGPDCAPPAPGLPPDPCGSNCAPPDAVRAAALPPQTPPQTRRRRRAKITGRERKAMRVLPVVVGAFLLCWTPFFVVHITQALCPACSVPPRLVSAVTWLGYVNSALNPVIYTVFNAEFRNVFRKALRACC

[10] = target: D(2) dopamine receptor (Homo sapiens) (UniProt P14416); settings: Compound concentration 10.0 uM
D(2) dopamine receptor (Homo sapiens), sequence (P14416 whole entry): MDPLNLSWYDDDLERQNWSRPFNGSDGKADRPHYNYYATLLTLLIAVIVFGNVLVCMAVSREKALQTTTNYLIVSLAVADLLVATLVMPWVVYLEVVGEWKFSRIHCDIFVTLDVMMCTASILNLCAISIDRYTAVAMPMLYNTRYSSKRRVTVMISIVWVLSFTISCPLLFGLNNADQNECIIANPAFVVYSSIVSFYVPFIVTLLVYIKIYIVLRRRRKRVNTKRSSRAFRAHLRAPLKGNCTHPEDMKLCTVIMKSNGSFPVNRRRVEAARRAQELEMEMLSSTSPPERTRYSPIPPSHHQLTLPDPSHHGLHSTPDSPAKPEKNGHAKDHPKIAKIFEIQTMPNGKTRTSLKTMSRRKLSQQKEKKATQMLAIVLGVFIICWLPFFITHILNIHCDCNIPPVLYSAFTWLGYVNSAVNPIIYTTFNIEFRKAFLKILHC

[11] = target: Calcium/calmodulin-dependent protein kinase type 1D (Homo sapiens) (UniProt Q8IU85); settings: Compound concentration 1000.0 nM
[12] = tested on: Proto-oncogene tyrosine-protein kinase receptor Ret (Homo sapiens), P07949 [V804L]; settings: Compound concentration 1000.0 nM
[13] = target: T4, Mitogen-activated protein kinase kinase kinase 2 (Homo sapiens) (UniProt Q9Y2U5); settings: Compound concentration 1000.0 nM
T4 sequence (whole entry): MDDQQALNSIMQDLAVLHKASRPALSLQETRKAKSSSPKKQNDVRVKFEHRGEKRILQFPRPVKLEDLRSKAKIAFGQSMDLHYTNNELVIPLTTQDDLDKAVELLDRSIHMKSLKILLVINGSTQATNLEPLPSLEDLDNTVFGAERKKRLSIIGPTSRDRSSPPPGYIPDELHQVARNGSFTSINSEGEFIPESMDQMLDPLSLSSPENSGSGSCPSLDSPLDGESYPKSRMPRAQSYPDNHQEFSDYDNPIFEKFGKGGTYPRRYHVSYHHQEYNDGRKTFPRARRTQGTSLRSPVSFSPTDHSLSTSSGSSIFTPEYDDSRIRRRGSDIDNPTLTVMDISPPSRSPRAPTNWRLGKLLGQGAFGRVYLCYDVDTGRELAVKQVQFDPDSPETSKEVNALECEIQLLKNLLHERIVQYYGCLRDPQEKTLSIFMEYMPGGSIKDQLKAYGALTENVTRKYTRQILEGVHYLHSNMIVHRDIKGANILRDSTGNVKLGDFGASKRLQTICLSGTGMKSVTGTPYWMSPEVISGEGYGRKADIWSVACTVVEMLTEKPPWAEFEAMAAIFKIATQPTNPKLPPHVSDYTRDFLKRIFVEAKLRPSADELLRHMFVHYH

[14] = target: Serine/threonine-protein kinase PLK2 (Homo sapiens) (UniProt Q9NYY3); settings: Compound concentration 1000.0 nM
[15] = target: 1-phosphatidylinositol 3-phosphate 5-kinase (Homo sapiens) (UniProt Q9Y2I7); settings: Compound concentration 1000.0 nM
1-phosphatidylinositol 3-phosphate 5-kinase (Homo sapiens), sequence (Q9Y2I7 whole entry, canonical isoform): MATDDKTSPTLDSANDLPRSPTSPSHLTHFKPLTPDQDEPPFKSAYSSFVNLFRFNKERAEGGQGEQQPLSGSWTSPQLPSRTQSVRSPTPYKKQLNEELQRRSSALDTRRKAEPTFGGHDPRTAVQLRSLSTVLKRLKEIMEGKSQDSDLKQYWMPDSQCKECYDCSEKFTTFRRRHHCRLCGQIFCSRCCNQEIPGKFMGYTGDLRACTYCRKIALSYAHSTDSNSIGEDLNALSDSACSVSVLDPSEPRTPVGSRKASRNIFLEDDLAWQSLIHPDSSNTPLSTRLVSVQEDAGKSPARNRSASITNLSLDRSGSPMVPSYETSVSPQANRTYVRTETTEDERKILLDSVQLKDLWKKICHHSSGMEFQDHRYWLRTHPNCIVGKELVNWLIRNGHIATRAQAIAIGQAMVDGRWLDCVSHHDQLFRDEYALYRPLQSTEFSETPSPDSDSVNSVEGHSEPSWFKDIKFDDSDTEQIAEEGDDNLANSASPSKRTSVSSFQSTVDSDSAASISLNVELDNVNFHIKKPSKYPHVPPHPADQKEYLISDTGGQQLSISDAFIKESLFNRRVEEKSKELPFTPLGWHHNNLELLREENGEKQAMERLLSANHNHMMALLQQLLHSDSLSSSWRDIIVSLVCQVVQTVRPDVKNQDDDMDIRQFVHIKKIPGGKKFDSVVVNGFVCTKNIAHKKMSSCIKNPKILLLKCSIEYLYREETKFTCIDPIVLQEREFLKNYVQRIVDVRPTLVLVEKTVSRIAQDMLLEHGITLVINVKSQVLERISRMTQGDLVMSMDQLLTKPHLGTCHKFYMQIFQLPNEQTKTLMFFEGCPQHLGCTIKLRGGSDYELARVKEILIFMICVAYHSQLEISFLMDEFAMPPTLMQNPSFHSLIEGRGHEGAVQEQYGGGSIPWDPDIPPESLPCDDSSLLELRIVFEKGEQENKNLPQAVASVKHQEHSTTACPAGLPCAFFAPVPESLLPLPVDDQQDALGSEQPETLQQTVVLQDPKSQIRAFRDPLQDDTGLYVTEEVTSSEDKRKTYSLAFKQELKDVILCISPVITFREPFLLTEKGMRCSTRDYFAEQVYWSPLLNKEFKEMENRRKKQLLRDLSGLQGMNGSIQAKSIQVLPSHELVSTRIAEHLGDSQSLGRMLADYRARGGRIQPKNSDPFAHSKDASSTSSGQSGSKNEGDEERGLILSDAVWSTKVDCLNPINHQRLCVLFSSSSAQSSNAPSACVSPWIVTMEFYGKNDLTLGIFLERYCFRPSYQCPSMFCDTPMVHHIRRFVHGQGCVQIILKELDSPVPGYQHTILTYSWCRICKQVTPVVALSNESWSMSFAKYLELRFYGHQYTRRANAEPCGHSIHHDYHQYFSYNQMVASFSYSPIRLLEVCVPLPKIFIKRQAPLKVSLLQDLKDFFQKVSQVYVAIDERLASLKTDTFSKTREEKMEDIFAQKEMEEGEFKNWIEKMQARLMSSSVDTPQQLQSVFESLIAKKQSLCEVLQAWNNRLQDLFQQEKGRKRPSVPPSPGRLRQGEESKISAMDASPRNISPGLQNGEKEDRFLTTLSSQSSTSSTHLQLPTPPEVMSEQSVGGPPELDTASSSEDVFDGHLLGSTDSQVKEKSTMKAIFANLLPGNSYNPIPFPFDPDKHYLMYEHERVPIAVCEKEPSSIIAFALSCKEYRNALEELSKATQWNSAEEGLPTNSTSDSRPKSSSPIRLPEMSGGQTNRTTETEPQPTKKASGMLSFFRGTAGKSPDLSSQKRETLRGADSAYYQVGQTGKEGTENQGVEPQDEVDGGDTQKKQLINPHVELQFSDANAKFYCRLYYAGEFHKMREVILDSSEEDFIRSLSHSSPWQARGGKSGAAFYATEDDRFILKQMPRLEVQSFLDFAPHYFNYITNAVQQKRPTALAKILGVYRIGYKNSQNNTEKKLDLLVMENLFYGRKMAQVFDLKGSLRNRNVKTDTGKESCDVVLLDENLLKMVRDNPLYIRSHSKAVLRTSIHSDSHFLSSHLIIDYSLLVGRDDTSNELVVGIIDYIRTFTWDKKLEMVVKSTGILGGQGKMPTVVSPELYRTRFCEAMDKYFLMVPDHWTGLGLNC

[16] = target: Casein kinase I isoform epsilon (Homo sapiens) (UniProt P49674); settings: Compound concentration 1000.0 nM
Casein kinase I isoform epsilon (Homo sapiens), sequence (P49674 whole entry, looked up, canonical isoform): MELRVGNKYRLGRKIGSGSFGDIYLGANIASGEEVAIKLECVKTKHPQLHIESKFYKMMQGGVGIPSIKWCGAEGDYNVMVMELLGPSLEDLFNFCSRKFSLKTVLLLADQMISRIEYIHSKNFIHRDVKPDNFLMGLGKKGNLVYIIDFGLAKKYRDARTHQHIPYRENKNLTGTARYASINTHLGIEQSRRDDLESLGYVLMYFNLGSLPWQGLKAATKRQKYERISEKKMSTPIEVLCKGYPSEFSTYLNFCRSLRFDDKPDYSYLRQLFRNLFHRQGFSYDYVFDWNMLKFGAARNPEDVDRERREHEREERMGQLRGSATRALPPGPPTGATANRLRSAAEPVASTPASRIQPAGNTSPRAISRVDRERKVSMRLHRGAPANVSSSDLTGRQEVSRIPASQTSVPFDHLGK

[17] = target: Protein kinase C delta type (Homo sapiens) (UniProt Q05655); settings: Compound concentration 1000.0 nM
[18] = target: Calcium/calmodulin-dependent protein kinase type 1 (Homo sapiens) (UniProt Q14012); settings: Compound concentration 1000.0 nM
Calcium/calmodulin-dependent protein kinase type 1 (Homo sapiens), sequence (Q14012 whole entry, looked up): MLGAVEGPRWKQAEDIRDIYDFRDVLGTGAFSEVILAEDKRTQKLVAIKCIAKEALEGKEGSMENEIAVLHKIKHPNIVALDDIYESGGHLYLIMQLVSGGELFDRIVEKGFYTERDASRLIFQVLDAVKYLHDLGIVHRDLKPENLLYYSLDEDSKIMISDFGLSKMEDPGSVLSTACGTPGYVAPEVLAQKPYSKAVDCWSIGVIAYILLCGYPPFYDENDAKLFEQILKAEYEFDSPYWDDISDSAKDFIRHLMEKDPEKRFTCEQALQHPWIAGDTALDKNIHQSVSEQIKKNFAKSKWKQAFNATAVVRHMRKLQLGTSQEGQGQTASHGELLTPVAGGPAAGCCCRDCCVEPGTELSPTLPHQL

[19] = target: 5-hydroxytryptamine receptor 1D (Homo sapiens) (UniProt P28221); assay: 5HT1D/H AG Cerep selectivity data (BI); settings: filed as agonist, Compound concentration 20.0 uM

Activated CDC42 kinase 1 (Homo sapiens), sequence (Q07912 whole entry, looked up): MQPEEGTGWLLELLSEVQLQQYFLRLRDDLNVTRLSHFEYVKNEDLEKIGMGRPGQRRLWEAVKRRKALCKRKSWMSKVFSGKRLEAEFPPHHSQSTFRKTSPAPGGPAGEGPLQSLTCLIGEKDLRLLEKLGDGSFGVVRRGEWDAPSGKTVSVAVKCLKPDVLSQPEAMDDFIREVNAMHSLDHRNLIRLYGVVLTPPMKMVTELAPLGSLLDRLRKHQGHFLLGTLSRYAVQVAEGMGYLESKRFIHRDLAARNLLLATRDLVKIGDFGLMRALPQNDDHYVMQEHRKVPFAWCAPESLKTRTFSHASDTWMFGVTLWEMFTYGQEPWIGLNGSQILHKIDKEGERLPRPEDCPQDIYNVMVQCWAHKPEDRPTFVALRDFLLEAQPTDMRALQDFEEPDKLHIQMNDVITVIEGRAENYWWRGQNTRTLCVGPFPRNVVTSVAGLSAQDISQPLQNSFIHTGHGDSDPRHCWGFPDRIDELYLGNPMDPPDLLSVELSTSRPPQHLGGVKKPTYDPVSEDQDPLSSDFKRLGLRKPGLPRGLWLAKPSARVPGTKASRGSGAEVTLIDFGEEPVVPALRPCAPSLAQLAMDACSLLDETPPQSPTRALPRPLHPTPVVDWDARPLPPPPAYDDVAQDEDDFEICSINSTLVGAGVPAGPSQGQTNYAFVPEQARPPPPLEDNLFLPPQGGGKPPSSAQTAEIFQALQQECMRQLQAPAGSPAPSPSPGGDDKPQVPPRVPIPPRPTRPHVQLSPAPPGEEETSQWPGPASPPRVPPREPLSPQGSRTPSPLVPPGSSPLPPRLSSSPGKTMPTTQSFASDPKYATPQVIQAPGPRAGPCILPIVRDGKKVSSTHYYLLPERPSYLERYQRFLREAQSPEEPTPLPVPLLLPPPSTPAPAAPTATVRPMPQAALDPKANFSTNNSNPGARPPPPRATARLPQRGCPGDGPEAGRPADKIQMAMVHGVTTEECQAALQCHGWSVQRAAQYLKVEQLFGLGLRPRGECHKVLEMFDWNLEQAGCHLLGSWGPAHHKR
Ribosomal protein S6 kinase alpha-1 (Homo sapiens), sequence (Q15418 whole entry): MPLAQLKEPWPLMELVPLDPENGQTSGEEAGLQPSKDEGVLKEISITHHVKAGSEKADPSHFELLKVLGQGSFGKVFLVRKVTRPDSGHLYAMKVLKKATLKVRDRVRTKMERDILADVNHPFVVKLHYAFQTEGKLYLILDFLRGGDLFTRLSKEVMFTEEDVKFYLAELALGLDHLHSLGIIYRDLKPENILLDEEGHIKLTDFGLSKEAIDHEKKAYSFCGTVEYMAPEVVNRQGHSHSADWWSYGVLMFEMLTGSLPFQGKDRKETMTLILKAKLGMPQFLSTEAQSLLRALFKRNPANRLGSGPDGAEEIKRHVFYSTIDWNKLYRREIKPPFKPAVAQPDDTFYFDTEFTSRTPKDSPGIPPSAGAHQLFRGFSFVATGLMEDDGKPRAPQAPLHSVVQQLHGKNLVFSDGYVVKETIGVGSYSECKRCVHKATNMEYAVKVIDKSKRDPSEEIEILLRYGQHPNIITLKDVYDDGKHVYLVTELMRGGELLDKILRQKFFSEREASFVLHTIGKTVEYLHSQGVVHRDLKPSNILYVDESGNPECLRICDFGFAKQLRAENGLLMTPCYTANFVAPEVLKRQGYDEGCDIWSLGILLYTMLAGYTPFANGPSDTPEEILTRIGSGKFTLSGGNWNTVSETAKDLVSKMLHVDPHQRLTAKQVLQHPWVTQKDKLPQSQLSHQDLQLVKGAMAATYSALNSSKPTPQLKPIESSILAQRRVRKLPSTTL

CN(C)C(=O)Cn1cc(-c2nc(C3(c4ccc(-c5cnc(N)nc5)cc4)CC3)no2)cn1 [BI 0153]
inactive: residual activity [1] 99% | residual activity [2] 96% | residual activity [3] 81% | residual activity [4] 100% | residual activity [5] 100% | residual activity [6] 71% | residual activity [7] 95% | inhibition [8] 13.9% | inhibition [9] 1.18% | inhibition [10] 16.1% | residual activity [11] 100% | residual activity [12] 100% | residual activity [13] 93% | residual activity [14] 93% | residual activity [15] 98% | residual activity [16] 100% | residual activity [17] 67% | residual activity [18] 100%

CN(C)C(=O)Cn1cc(-c2nc([C@@](C)(c3ccc(-c4cnc(N)nc4)cc3)C3CC3)no2)cn1 [BI 665915]
inactive: residual activity [1] 93% | residual activity [2] 91% | residual activity [3] 100% | residual activity [4] 75% | residual activity [5] 85% | residual activity [19] 102% | residual activity [6] 83% | residual activity [7] 79% | inhibition [8] 4.68% | inhibition [9] 1.48% | inhibition [10] 13.6% | residual activity [11] 100% | residual activity [12] 93% | residual activity [13] 94% | residual activity [14] 56% | residual activity [15] 68% | residual activity [16] 97% | residual activity [17] 98% | residual activity [18] 100%
